# Test results reported in patent US11291671B2, “Solid drug implants for intracochlear delivery of therapeutics for the treatment of Otic disorders” (O-Ray Pharma, Inc., priority 2012, dated 2022).
# How the values were obtained:
# guinea pig cochleae [1] = assay: Intracochlear fluticasone proprionate for otoprotection of cisplatin dependent hearing loss, click ABR threshold; format: in vivo; conditions: control ear (no implant), day 28, after cisplatin; baseline day 14 23.9±2.3 dB; P≤0.0001
# From the text: Surgery: Albino guinea pigs were used for the single dose intracochlear implantation experiment. The guinea pigs received a single implant in one of their ears, and the other ear was used as internal control. Under general anesthesia, a postauricular incision was made over the bulla in the experimental ear. A small hole was drilled through the bulla using a posterior approach. The ear was positioned with the round window facing horizontally and superiorly. A 32-gauge needle was used to puncture the round window and the particle was put in contact with the perilymph in the scala tympani. A blood drop was placed over the round window injection site to avoid leakage of perilymphatic fluids and a suture was used to close the wound. Auditory Measurements; see FIGS. 5A and 5B: Animals were anesthetized for auditory testing. […] Lower ABR LS Means reading indicates better hearing. Error bars indicate Standard Error. Study Design: Particles were created and implanted into guinea pig cochleae as described in Examples 1-2. The study design is as follows: • Each animal: one ear implanted with extended release fluticasone particle (“implant ear”), other ear served as internal control (“control ear”). • Hearing was assessed via click (broad frequency) ABRs and DPOAE
# guinea pig cochleae [2] = assay: Intracochlear fluticasone proprionate for otoprotection of cisplatin dependent hearing loss, DPOAE; format: in vivo; conditions: 14 days after cisplatin application, no implant
# From the text: Surgery: Albino guinea pigs were used for the single dose intracochlear implantation experiment. The guinea pigs received a single implant in one of their ears, and the other ear was used as internal control. Under general anesthesia, a postauricular incision was made over the bulla in the experimental ear. A small hole was drilled through the bulla using a posterior approach. The ear was positioned with the round window facing horizontally and superiorly. A 32-gauge needle was used to puncture the round window and the particle was put in contact with the perilymph in the scala tympani. A blood drop was placed over the round window injection site to avoid leakage of perilymphatic fluids and a suture was used to close the wound. DPOAE (2f1-f2) Input/output functions were recorded. Response amplitude was recorded as a function of L2 (L1-L2=10 dB); primaries incremented together in 5 dB steps (from 20 to 80 dB SPL) spanning the frequency range f2=5.6-45.2 kHz (f2/f1=1.2). […] Higher DPOAE reading indicates better hearing. Error bars indicate Standard Error. […] The study design is as follows: • Each animal: one ear implanted with extended release fluticasone particle (“implant ear”), other ear served as internal control (“control ear”). • Hearing was assessed via click (broad frequency) ABRs and DPOAE
# patients = conditions: cited from earlier work
SMILES,"ABR threshold, control ears following cisplatin treatment at day 28 (guinea pig cochleae [1]) [dB]","DPOAE responses, control ears (guinea pig cochleae [2])",Patients displaying some vestibular impairment (patients; one gram daily for 60 to 120 days) [%],Incidence of vestibular impairment (patients; two grams per day) [%]
"N.N.[Cl][Pt][Cl] [cisplatin, cis-diammine-dichloroplatinum(II)]",40.7±2.5,absent,–,–
[H]/N=C(/N)N[C@H]1[C@H](O)[C@@H](O)[C@H](O[C@@H]2O[C@@H](C)[C@](O)(C=O)[C@H]2O[C@@H]2O[C@@H](CO)[C@H](O)[C@@H](O)[C@@H]2NC)[C@@H](N/C(N)=N\[H])[C@@H]1O [streptomycin],–,–,25,75
